In PubChem BioAssay AID192 (DTP/NCI, 2004):
Several values for one entry are separate records, joined by “and”; a condition that tells them apart may be missing. Equal entries are not always repeated. Toxic doses and inconclusive results are not listed. How the source made its calls: active means survival T/C of 150% or more; inactive means T/C below 125% in these data.

Test system: BDF1 mice, B16 melanoma ip, median survival T/C
Assay: NCI In Vivo Anticancer Drug Screen. Data for tumor model B16 Melanoma (intraperitoneal) in B6D2F1 (BDF1) mice
Conditions: endpoint: median survival time, higher = longer survival
Procedure, shortened: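 The ratio T/C compares compound-treated mice with vehicle-treated controls, using survival or tumor size as the endpoint in a transplantable tumor model.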

[1] = dose: 200.0 mg/kg/injection, schedule: Q01DX009 (ip), vehicle: saline with Tween-80
[2] = dose: 300.0 mg/kg/injection, schedule: Q01DX009 (ip), vehicle: saline with Tween-80
[3] = dose: 12.5 mg/kg/injection, schedule: Q01DX009 (ip), vehicle: saline with Tween-80
[4] = dose: 25.0 mg/kg/injection, schedule: Q01DX009 (ip), vehicle: saline with Tween-80
[5] = dose: 50.0 mg/kg/injection, schedule: Q01DX009 (ip), vehicle: saline with Tween-80
[6] = dose: 100.0 mg/kg/injection, schedule: Q01DX009 (ip), vehicle: saline with Tween-80
[7] = dose: 6.25 mg/kg/injection, schedule: Q01DX009 (ip), vehicle: saline
[8] = dose: 12.5 mg/kg/injection, schedule: Q01DX009 (ip), vehicle: saline
[9] = dose: 25.0 mg/kg/injection, schedule: Q01DX009 (ip), vehicle: saline
[10] = dose: 50.0 mg/kg/injection, schedule: Q01DX009 (ip), vehicle: saline
[11] = dose: 100.0 mg/kg/injection, schedule: Q01DX009 (ip), vehicle: saline
[12] = dose: 50.0 mg/kg/injection, schedule: Q01DX009 (ip), vehicle: Klucel (hydroxypropylcellulose) (HPC)
[13] = dose: 100.0 mg/kg/injection, schedule: Q01DX009 (ip), vehicle: Klucel (hydroxypropylcellulose) (HPC)
[14] = dose: 200.0 mg/kg/injection, schedule: Q01DX009 (ip), vehicle: Klucel (hydroxypropylcellulose) (HPC)
[15] = dose: 25.0 mg/kg/injection, schedule: Q01DX009 (ip), vehicle: Klucel (hydroxypropylcellulose) (HPC)
[16] = dose: 400.0 mg/kg/injection, schedule: Q01DX009 (ip), vehicle: Klucel (hydroxypropylcellulose) (HPC)

Measured: T/C

CC1(C)N=C(N)N=C(N)N1c1cccc(Cl)c1
inactive: dose: 5.0 mg/kg/injection, schedule: Q01DX009 (ip), vehicle: saline 115 % of control | dose: 10.0 mg/kg/injection, schedule: Q01DX009 (ip), vehicle: saline 115 % of control | dose: 10.0 mg/kg/injection, schedule: Q04DX003 (ip), vehicle: saline 118 % of control | dose: 20.0 mg/kg/injection, schedule: Q01DX009 (ip), vehicle: saline 120 % of control | dose: 20.0 mg/kg/injection, schedule: Q04DX003 (ip), vehicle: saline 117 % of control | dose: 40.0 mg/kg/injection, schedule: Q01DX009 (ip), vehicle: saline 120 % of control

CCC(C)c1ccc(O)c(C(C)CC)c1 (centres undefined)
inactive: dose: 88.0 mg/kg/injection, schedule: Q01DX009 (ip), vehicle: saline with Tween-80 123 % of control | dose: 133.0 mg/kg/injection, schedule: Q01DX009 (ip), vehicle: saline with Tween-80 108 % of control | [1] 105 % of control | [2] 108 % of control

CCOC(=O)C(Cc1ccc(Cl)c(Cl)c1)(Cc1ccc(Cl)c(Cl)c1)C(=O)OCC
inactive: [3] 99 % of control | [4] 97 % of control | [5] 94 % of control

CNC(=O)Nc1nc2ccc([N+](=O)[O-])cc2[nH]1
inactive: dose: 50.0 mg/kg/injection, schedule: Q01DX009 (ip), vehicle: suspension in saline 101 % of control | dose: 100.0 mg/kg/injection, schedule: Q01DX009 (ip), vehicle: suspension in saline 91 % of control | dose: 200.0 mg/kg/injection, schedule: Q01DX009 (ip), vehicle: suspension in saline 90 % of control | dose: 400.0 mg/kg/injection, schedule: Q01DX009 (ip), vehicle: suspension in saline 91 % of control

ClC(Cl)(Cl)C(N1CCN(c2ccccc2)CC1)N1CCN(c2ccccc2)CC1
inactive: [5] 113 % of control | [6] 96 % of control | [1] 112 % of control | dose: 400.0 mg/kg/injection, schedule: Q01DX009 (ip), vehicle: saline with Tween-80 91 % of control

CC(=O)NNC(=O)c1cnccn1
inactive: dose: 22.5 mg/kg/injection, schedule: Q01DX009 (ip), vehicle: saline 97 % of control | dose: 45.0 mg/kg/injection, schedule: Q01DX009 (ip), vehicle: saline 97 % of control | dose: 90.0 mg/kg/injection, schedule: Q01DX009 (ip), vehicle: saline 90 % of control

CC(C)c1ccc(C2CCCCC2O)cc1 (centres undefined)
inactive: [5] 94 % of control | [6] 88 % of control

CN(Cc1ccccc1)/N=N/c1nc[nH]c1C(N)=O
inactive: [4] 111 % of control | [5] 111 % of control | [6] 111 % of control | [1] 110 % of control

Cn1c(=O)[nH]c2nncnc2c1=O
inactive: dose: 0.37 mg/kg/injection, schedule: Q01DX009 (ip), vehicle: water 99 % of control | dose: 0.75 mg/kg/injection, schedule: Q01DX009 (ip), vehicle: water 118 % of control | dose: 1.5 mg/kg/injection, schedule: Q01DX009 (ip), vehicle: water 103 % of control | dose: 3.0 mg/kg/injection, schedule: Q01DX009 (ip), vehicle: water 99 % of control

CCN(CC)CCC1CCNCC1
inactive: [7] 112 % of control | [8] 112 % of control | [9] 106 % of control

OC(CBr)C(O)C(O)C(O)CBr (centres undefined)
inactive: [8] 110 % of control | dose: 20.0 mg/kg/injection, schedule: Q01DX009 (ip), vehicle: saline with Tween-80 107 % of control | [9] 107 % of control | dose: 25.9 mg/kg/injection, schedule: Q01DX009 (ip), vehicle: saline with Tween-80 109 % of control | dose: 40.0 mg/kg/injection, schedule: Q01DX009 (ip), vehicle: saline with Tween-80 100 % of control | dose: 43.2 mg/kg/injection, schedule: Q01DX009 (ip), vehicle: saline with Tween-80 105 % of control | [10] 120 % of control and 107 % of control | dose: 72.0 mg/kg/injection, schedule: Q01DX009 (ip), vehicle: saline with Tween-80 116 % of control | dose: 80.0 mg/kg/injection, schedule: Q01DX009 (ip), vehicle: saline with Tween-80 108 % of control | [6] 103 % of control and 120 % of control | [11] 107 % of control | dose: 120.0 mg/kg/injection, schedule: Q01DX009 (ip), vehicle: saline with Tween-80 101 % of control | dose: 160.0 mg/kg/injection, schedule: Q01DX009 (ip), vehicle: saline with Tween-80 115 % of control | [1] 113 % of control and 114 % of control | dose: 200.0 mg/kg/injection, schedule: Q01DX009 (ip), vehicle: saline 117 % of control and 110 % of control | [2] 82 % of control | dose: 555.8 mg/kg/injection, schedule: Q01DX009 (ip), vehicle: saline with Tween-80 55 % of control | dose: 800.0 mg/kg/injection, schedule: Q01DX009 (ip), vehicle: saline with Tween-80 112 % of control

COC(=O)C(F)C(Br)C(=O)OC (centres undefined)
inactive: dose: 3.12 mg/kg/injection, schedule: Q01DX009 (ip), vehicle: saline with Tween-80 105 % of control | dose: 6.25 mg/kg/injection, schedule: Q01DX009 (ip), vehicle: saline with Tween-80 99 % of control | [3] 94 % of control | [4] 99 % of control | [5] 98 % of control

COc1c(NC(=O)CC(C)=O)cccc1NC(=O)CC(C)=O
inactive: [12] 120 % of control | [13] 104 % of control | [14] 97 % of control

CCCCOB=O
inactive: [5] 95 % of control | [6] 99 % of control | [1] 89 % of control

Cn1nc(N)c2ncc(-c3ccc(Cl)cc3)nc21
inactive: [3] 91 % of control | [4] 90 % of control

COc1cc2cc[n+](C)cc2cc1OC
inactive: dose: 6.25 mg/kg/injection, schedule: Q01DX009 (ip), vehicle: water 95 % of control | dose: 12.5 mg/kg/injection, schedule: Q01DX009 (ip), vehicle: water 95 % of control | dose: 25.0 mg/kg/injection, schedule: Q01DX009 (ip), vehicle: water 97 % of control | dose: 50.0 mg/kg/injection, schedule: Q01DX009 (ip), vehicle: water 92 % of control

C[C@@H]1CC2=CC(=O)C=C[C@]2(C)[C@H]2CC[C@@]3(C)[C@@H](CC[C@]3(C)O)[C@H]12
inactive: dose: 6.25 mg/kg/injection, schedule: Q01DX009 (ip), vehicle: Klucel (hydroxypropylcellulose) (HPC) 107 % of control | dose: 12.5 mg/kg/injection, schedule: Q01DX009 (ip), vehicle: Klucel (hydroxypropylcellulose) (HPC) 103 % of control | [15] 102 % of control | [12] 95 % of control | [13] 93 % of control

CCC(C)OC(N)=O (centres undefined)
inactive: [11] 123 % of control

CC(=O)Nc1ccc(C)c(Cl)c1
inactive: [6] 111 % of control | [1] 90 % of control

CC(=O)CC(=O)N1CCCC(C)C1 (centres undefined)
inactive: [13] 116 % of control | [14] 109 % of control | [16] 110 % of control

NC(=O)C=C1c2ccccc2-c2ccccc21
inactive: [15] 100 % of control | [12] 100 % of control | [13] 94 % of control | [14] 88 % of control | [16] 86 % of control

Cc1ccc(C)c(C(O)C2CC2)c1 (centres undefined)
inactive: [5] 104 % of control | [6] 100 % of control

CNC(=O)Oc1cccn(C(=O)NC)c1=O
inactive: [8] 86 % of control | [9] 91 % of control and 93 % of control | [10] 87 % of control | dose: 75.0 mg/kg/injection, schedule: Q01DX009 (ip), vehicle: saline 88 % of control | [11] 86 % of control

COc1ccc2c(c1)c(C#N)cc[n+]2C
inactive: dose: 3.13 mg/kg/injection, schedule: Q01DX009 (ip), vehicle: saline 102 % of control | [7] 100 % of control

CO[C@H]1C[C@H](O[C@H]2CC[C@]3(C=O)[C@H]4CC[C@]5(C)[C@@H](C6=CC(=O)OC6)CC[C@]5(O)[C@@H]4CC[C@]3(O)C2)O[C@H](C)[C@H]1O[C@@H]1O[C@H](CO)[C@@H](O)[C@H](O)[C@H]1O
inactive: dose: 0.25 mg/kg/injection, schedule: Q01DX009 (ip), vehicle: saline 105 % of control | dose: 0.25 mg/kg/injection, schedule: Q04DX003 (ip), vehicle: saline 100 % of control | dose: 0.5 mg/kg/injection, schedule: Q01DX009 (ip), vehicle: saline 100 % of control | dose: 0.5 mg/kg/injection, schedule: Q04DX003 (ip), vehicle: saline 102 % of control | dose: 1.0 mg/kg/injection, schedule: Q01DX009 (ip), vehicle: saline 100 % of control | dose: 1.0 mg/kg/injection, schedule: Q04DX003 (ip), vehicle: saline 105 % of control | dose: 2.0 mg/kg/injection, schedule: Q01DX009 (ip), vehicle: saline 94 % of control
